# In ChEMBL document CHEMBL1127815, “Homodimeric and heterodimeric bis(amino thiol) oxometal complexes with rhenium(V) and technetium(V). Control of heterodimeric complex formation and an approach to metal complexes that mimic steroid hormones” (J Med Chem, 1994):
# How the values were obtained:
# Rattus norvegicus [1] = test: Biodistribution in Sprague-Darwley rat rest of brain at 30 min after intravenous administration of 70g; assay type: ADME, organism-based; conditions: in vivo, 0.5 h
# Rattus norvegicus [2] = test: Biodistribution in Sprague-Darwley rat rest of brain at 60 min after intravenous administration of 70g; assay type: ADME, organism-based; conditions: in vivo, 1 h
# Rattus norvegicus [3] = test: Biodistribution in Sprague-Darwley rat kidney at 30 min after intravenous administration of 70g; assay type: ADME, organism-based; conditions: in vivo, 0.5 h
# Rattus norvegicus [4] = test: Biodistribution in Sprague-Darwley rat kidney at 60 min after intravenous administration of 70g; assay type: ADME, organism-based; conditions: in vivo, 1 h
# Rattus norvegicus [5] = test: Biodistribution in Sprague-Darwley rat liver at 120 min after intravenous administration of 70g; assay type: ADME, organism-based; conditions: in vivo, 2 h
# Rattus norvegicus [6] = test: Biodistribution in Sprague-Darwley rat liver at 15 min after intravenous administration of 70g; assay type: ADME, organism-based; conditions: in vivo, 0.25 h
# Rattus norvegicus [7] = test: Biodistribution in Sprague-Darwley rat liver at 2 min after intravenous administration of 70g; assay type: ADME, organism-based; conditions: in vivo
# Rattus norvegicus [8] = test: Biodistribution in Sprague-Darwley rat liver at 30 min after intravenous administration of 70g; assay type: ADME, organism-based; conditions: in vivo, 0.5 h
# Rattus norvegicus [9] = test: Biodistribution in Sprague-Darwley rat liver at 60 min after intravenous administration of 70g; assay type: ADME, organism-based; conditions: in vivo, 1 h
# Rattus norvegicus [10] = test: Biodistribution in Sprague-Darwley rat lung at 120 min after intravenous administration of 70g; assay type: ADME, organism-based; conditions: in vivo, 2 h
# Rattus norvegicus [11] = test: Biodistribution in Sprague-Darwley rat lung at 15 min after intravenous administration of 70g; assay type: ADME, organism-based; conditions: in vivo, 0.25 h
# Rattus norvegicus [12] = test: Biodistribution in Sprague-Darwley rat lung at 2 min after intravenous administration of 70g; assay type: ADME, organism-based; conditions: in vivo
# Rattus norvegicus [13] = test: Biodistribution in Sprague-Darwley rat lung at 30 min after intravenous administration of 70g; assay type: ADME, organism-based; conditions: in vivo, 0.5 h
# Rattus norvegicus [14] = test: Biodistribution in Sprague-Darwley rat lung at 60 min after intravenous administration of 70g; assay type: ADME, organism-based; conditions: in vivo, 1 h
# Rattus norvegicus [15] = test: Biodistribution in Sprague-Darwley rat muscle at 120 min after intravenous administration of 70g; assay type: ADME, organism-based, Muscle tissue; conditions: in vivo, 2 h
# Rattus norvegicus [16] = test: Biodistribution in Sprague-Darwley rat muscle at 15 min after intravenous administration of 70g; assay type: ADME, organism-based, Muscle tissue; conditions: in vivo, 0.25 h
# Rattus norvegicus [17] = test: Biodistribution in Sprague-Darwley rat muscle at 2 min after intravenous administration of 70g; assay type: ADME, organism-based, Muscle tissue; conditions: in vivo
# Rattus norvegicus [18] = test: Biodistribution in Sprague-Darwley rat muscle at 30 min after intravenous administration of 70g; assay type: ADME, organism-based, Muscle tissue; conditions: in vivo, 0.5 h
# Rattus norvegicus [19] = test: Biodistribution in Sprague-Darwley rat muscle at 60 min after intravenous administration of 70g; assay type: ADME, organism-based, Muscle tissue; conditions: in vivo, 1 h
# Rattus norvegicus [20] = test: Biodistribution in Sprague-Darwley rat rest of brain at 120 min after intravenous administration of 70g; assay type: ADME, organism-based; conditions: in vivo, 2 h
# Rattus norvegicus [21] = test: Biodistribution in Sprague-Darwley rat rest of brain at 15 min after intravenous administration of 70g; assay type: ADME, organism-based; conditions: in vivo, 0.25 h
# Rattus norvegicus [22] = test: Biodistribution in Sprague-Darwley rat rest of brain at 2 min after intravenous administration of 70g; assay type: ADME, organism-based; conditions: in vivo
# Rattus norvegicus [23] = test: Biodistribution in Sprague-Darwley rat blood at 60 min after intravenous administration of 70g; assay type: ADME, organism-based; conditions: in vivo, 1 h
# Rattus norvegicus [24] = test: Biodistribution in Sprague-Darwley rat fat at 120 min after intravenous administration of 70g; assay type: ADME, organism-based, Adipose tissue; conditions: in vivo, 2 h
# Rattus norvegicus [25] = test: Biodistribution in Sprague-Darwley rat fat at 15 min after intravenous administration of 70g; assay type: ADME, organism-based, Adipose tissue; conditions: in vivo, 0.25 h
# Rattus norvegicus [26] = test: Biodistribution in Sprague-Darwley rat fat at 2 min after intravenous administration of 70g; assay type: ADME, organism-based, Adipose tissue; conditions: in vivo
# Rattus norvegicus [27] = test: Biodistribution in Sprague-Darwley rat fat at 60 min after intravenous administration of 70g; assay type: ADME, organism-based, Adipose tissue; conditions: in vivo, 1 h
# Rattus norvegicus [28] = test: Biodistribution in Sprague-Darwley rat heart at 120 min after intravenous administration of 70g; assay type: ADME, organism-based; conditions: in vivo, 2 h
# Rattus norvegicus [29] = test: Biodistribution in Sprague-Darwley rat heart at 15 min after intravenous administration of 70g; assay type: ADME, organism-based; conditions: in vivo, 0.25 h
# Rattus norvegicus [30] = test: Biodistribution in Sprague-Darwley rat heart at 2 min after intravenous administration of 70g; assay type: ADME, organism-based; conditions: in vivo
# Rattus norvegicus [31] = test: Biodistribution in Sprague-Darwley rat heart at 30 min after intravenous administration of 70g; assay type: ADME, organism-based; conditions: in vivo, 0.5 h
# Rattus norvegicus [32] = test: Biodistribution in Sprague-Darwley rat heart at 60 min after intravenous administration of 70g; assay type: ADME, organism-based; conditions: in vivo, 1 h
# Rattus norvegicus [33] = test: Biodistribution in Sprague-Darwley rat kidney at 120 min after intravenous administration of 70g; assay type: ADME, organism-based; conditions: in vivo, 2 h
# Rattus norvegicus [34] = test: Biodistribution in Sprague-Darwley rat kidney at 15 min after intravenous administration of 70g; assay type: ADME, organism-based; conditions: in vivo, 0.25 h
# Rattus norvegicus [35] = test: Biodistribution in Sprague-Darwley rat kidney at 2 min after intravenous administration of 70g; assay type: ADME, organism-based; conditions: in vivo
# Rattus norvegicus [36] = test: Biodistribution in Sprague-Darwley rat blood at 120 min after intravenous administration of 70g; assay type: ADME, organism-based; conditions: in vivo, 2 h
# Rattus norvegicus [37] = test: Biodistribution in Sprague-Darwley rat blood at 15 min after intravenous administration of 70g; assay type: ADME, organism-based; conditions: in vivo, 0.25 h
# Rattus norvegicus [38] = test: Biodistribution in Sprague-Darwley rat blood at 2 min after intravenous administration of 70g; assay type: ADME, organism-based; conditions: in vivo
# Rattus norvegicus [39] = test: Biodistribution in Sprague-Darwley rat blood at 30 min after intravenous administration of 70g; assay type: ADME, organism-based; conditions: in vivo, 0.5 h
# Rattus norvegicus [40] = test: Biodistribution in Sprague-Darwley rat fat at 30 min after intravenous administration of 70g; assay type: ADME, organism-based, Adipose tissue; conditions: in vivo, 0.5 h
substance,measurement,setting,value
[N-(2-Mercapto-2-methylpropyl)-N-(4-methoxyphenyl)-aminato][2-(mercaptomethyl)pyridinato]oxotechnetium V,ID/g,Rattus norvegicus [1],0.283%
same,ID/g,Rattus norvegicus [2],0.185%
same,ID/g,Rattus norvegicus [3],1.075%
same,ID/g,Rattus norvegicus [4],1.281%
same,ID/g,Rattus norvegicus [5],2.892%
same,ID/g,Rattus norvegicus [6],3.69%
same,ID/g,Rattus norvegicus [7],4.121%
same,ID/g,Rattus norvegicus [8],2.987%
same,ID/g,Rattus norvegicus [9],3.309%
same,ID/g,Rattus norvegicus [10],0.224%
same,ID/g,Rattus norvegicus [11],0.83%
same,ID/g,Rattus norvegicus [12],4.24%
same,ID/g,Rattus norvegicus [13],0.434%
same,ID/g,Rattus norvegicus [14],0.344%
same,ID/g,Rattus norvegicus [15],0.107%
same,ID/g,Rattus norvegicus [16],0.379%
same,ID/g,Rattus norvegicus [17],0.364%
same,ID/g,Rattus norvegicus [18],0.255%
same,ID/g,Rattus norvegicus [19],0.167%
same,ID/g,Rattus norvegicus [20],0.128%
same,ID/g,Rattus norvegicus [21],0.63%
same,ID/g,Rattus norvegicus [22],1.346%
same,ID/g,Rattus norvegicus [23],0.202%
same,ID/g,Rattus norvegicus [24],1.128%
same,ID/g,Rattus norvegicus [25],0.511%
same,ID/g,Rattus norvegicus [26],0.241%
same,ID/g,Rattus norvegicus [27],1.071%
same,ID/g,Rattus norvegicus [28],0.151%
same,ID/g,Rattus norvegicus [29],0.721%
same,ID/g,Rattus norvegicus [30],3.285%
same,ID/g,Rattus norvegicus [31],0.386%
same,ID/g,Rattus norvegicus [32],0.305%
same,ID/g,Rattus norvegicus [33],1.779%
same,ID/g,Rattus norvegicus [34],1.291%
same,ID/g,Rattus norvegicus [35],3.117%
same,ID/g,Rattus norvegicus [36],0.192%
same,ID/g,Rattus norvegicus [37],0.316%
same,ID/g,Rattus norvegicus [38],0.681%
same,ID/g,Rattus norvegicus [39],0.213%
same,ID/g,Rattus norvegicus [40],0.297%
